EP4219453A1 (Sichuan Kelun-Biotech Biopharmaceutical Co., Ltd., priority 2020, dated 2022)
Like-named read-outs stand apart in the source and are kept apart here.

Legend:
[1] = system: TGFβ/Smads signaling pathway in HEK293-SBE cells; assay: In vitro cell activity inhibition test, Bright-Glo luciferase reporter in HEK293-SBE cells; format: cell-based; settings: TGFβ 0.5 ng/ml, luciferase reporter gene method
Experimental: Test Example 3: In vitro cell activity inhibition test
Experimental method: According to the instructions of Bright-Glo™ luciferase detection kit (Promega), the inhibitory effect of the compounds of the present invention on TGFβ/Smads signaling pathway in HEK293-SBE cells was determined. The steps were as follows: HEK293-SBE cells (Bps bioscience) were added to a 96-well plate (10% FBS medium), 30,000/well, and cultured overnight at 37°C and 5% CO2. The medium was changed to 0.5% FBS medium, and the test compound diluted in 0.5% FBS medium was added. The highest final concentration of the test compound was 10 µM with 4-fold dilution, and a total of 8 concentration gradients. After 4-5 hours of incubation, 10 µl of TGFβ was added. The final concentration of TGFβ was 0.5 ng/ml. 10 µl of medium added in replace of TGFβ was the negative control. In the blank control, no test compound was added, and TGFβ was added. Bright Glo reagent was added to each well, and the chemiluminescence signal value was read on a microplate reader.
The percent inhibition rates of the test compound at different concentrations were plotted against the compound concentrations, the curve was fitted according to the four-parameter model, and the IC50 value was calculated by the following formula: y = Min + (Max - Min) / (1 + (x / IC50) ^ (-Hillslope)), wherein: y is percentage inhibition rate; Max and Min are the maximum and minimum values of the fitted curve, respectively; x is the logarithmic concentration of compound; and Hillslope is the slope of the curve.

hERG = target: T1, hERG (Homo sapiens, UniProt Q12809); assay: Biochemical hERG inhibition test, Predictor hERG fluorescence polarization kit; format: binding; settings: hERG cell membrane, competition with Tracer 1 nM, 10 µM and 1 µM test compound, 2 h
T1 construct: purchased ThermoFisher
T1 sequence (Q12809 whole entry): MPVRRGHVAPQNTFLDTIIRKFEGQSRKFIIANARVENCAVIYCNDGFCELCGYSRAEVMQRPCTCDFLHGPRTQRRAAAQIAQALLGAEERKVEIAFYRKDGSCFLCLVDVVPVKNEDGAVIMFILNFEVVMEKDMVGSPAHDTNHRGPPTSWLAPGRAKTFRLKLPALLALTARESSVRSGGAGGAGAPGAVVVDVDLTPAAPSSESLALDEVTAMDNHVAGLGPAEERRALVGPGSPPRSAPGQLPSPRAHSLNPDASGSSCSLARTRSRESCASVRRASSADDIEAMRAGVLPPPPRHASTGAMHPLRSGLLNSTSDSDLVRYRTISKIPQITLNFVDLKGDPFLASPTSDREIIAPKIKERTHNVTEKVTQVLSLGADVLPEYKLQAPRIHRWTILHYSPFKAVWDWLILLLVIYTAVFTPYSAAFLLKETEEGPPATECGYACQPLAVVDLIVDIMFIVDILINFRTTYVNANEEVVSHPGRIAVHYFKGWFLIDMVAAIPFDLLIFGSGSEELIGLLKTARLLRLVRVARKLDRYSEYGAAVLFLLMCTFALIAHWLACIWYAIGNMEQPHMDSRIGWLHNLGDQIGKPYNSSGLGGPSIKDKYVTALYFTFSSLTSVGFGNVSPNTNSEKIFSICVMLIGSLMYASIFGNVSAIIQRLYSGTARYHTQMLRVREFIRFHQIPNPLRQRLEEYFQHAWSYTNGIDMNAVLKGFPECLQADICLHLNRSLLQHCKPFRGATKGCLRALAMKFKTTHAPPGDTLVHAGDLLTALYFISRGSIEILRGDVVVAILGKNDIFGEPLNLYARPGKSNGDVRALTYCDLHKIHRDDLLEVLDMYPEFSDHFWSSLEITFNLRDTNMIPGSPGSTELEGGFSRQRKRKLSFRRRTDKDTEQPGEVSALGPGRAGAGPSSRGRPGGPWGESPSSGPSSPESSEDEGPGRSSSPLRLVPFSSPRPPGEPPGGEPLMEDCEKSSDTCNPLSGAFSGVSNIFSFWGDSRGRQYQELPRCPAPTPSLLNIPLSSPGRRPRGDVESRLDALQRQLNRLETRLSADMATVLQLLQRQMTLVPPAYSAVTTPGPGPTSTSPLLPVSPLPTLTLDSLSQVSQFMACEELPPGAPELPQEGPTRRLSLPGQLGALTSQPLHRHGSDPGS
Experimental: Test Example 4: Biochemical hERG inhibition test
• 1. Test system: Kit: Predictor™ hERG fluorescence polarization detection kit (ThermoFisher), the kit contained the following components: positive control compound hERG potassium channel blocker E4031; hERG cell membrane; affinity tracer Tracer; and hERG buffer. • 2. Test parameters: hERG concentration: 1×; Tracer concentration: 1 nM; incubation time: 2 h; BMG PHERAstar FSFP. • 3.
Positive control group: 30 µM positive control compound E4031 was used to replace the test compound, and the experimental method was the same as that of the test group.
Blank control group: hERG buffer was used to replace the test compound without the addition of hERG cell membrane, and the experimental method was the same as that of the test group.
According to the data ratio, the percent inhibition rates (%) of the compounds of the present invention to hERG at different concentrations were calculated, and the ranges of the half inhibitory concentration (IC50) of the compounds were determined.

TGFβR1 = target: T2, TGFβR1 (Homo sapiens, UniProt P36897); assay: In vitro enzymatic activity inhibition test (TGFβR1), ADP-Glo Kinase Detection Kit; format: biochemical; settings: calculated from percent inhibition at 1000 nM, 100 nM, 10 nM
T2 sequence (P36897 34-503): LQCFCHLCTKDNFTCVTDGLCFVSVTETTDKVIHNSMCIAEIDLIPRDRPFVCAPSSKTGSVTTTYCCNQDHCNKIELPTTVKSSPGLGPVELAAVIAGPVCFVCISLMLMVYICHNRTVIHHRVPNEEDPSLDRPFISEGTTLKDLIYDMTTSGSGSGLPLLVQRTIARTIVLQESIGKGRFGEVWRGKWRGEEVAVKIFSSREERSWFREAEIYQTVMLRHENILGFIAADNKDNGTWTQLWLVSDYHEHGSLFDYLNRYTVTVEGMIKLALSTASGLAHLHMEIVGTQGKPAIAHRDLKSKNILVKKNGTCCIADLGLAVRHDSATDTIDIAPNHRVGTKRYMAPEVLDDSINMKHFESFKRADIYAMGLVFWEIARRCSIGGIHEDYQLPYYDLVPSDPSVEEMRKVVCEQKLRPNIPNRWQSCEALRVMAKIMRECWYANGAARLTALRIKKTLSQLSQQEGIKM
Experimental: Test Example 1: In vitro enzymatic activity inhibition test (TGFβR1).
Experimental method: According to the instructions of ADP-Glo™ Kinase Detection Kit (Promega), the inhibitory effect of the compounds of the present invention on the enzymatic activity of TGFβR1 was determined, and the steps were as follows: TGFβR1 enzyme were pre-incubated with different concentrations of test compounds (1000 nM, 100 nM, 10 nM) at 30°C for 30 min, TGFβR1 peptide and adenosine triphosphate (ATP) were added to initiate the reaction. The incubation was performed at 30°C for 3 h, followed by an addition of ADP-Glo™ reagent and incubated at room temperature for 90 min, kinase detection reagent was then added. Chemiluminescence signal values were detected after incubation at room temperature for another 30 min.
When the percent inhibition rate was between 30% and 80%, the median inhibitory concentration (IC50) or range of the compound was calculated according to the following formula: IC50 = X × (1 - percent inhibition rate (%)) / percent inhibition rate (%), wherein X is the concentration of the compound at which the inhibition rate is between 30% and 80%.

CYP1A2 = target: T3, CYP1A2 (Homo sapiens, UniProt P05177); assay: CYP enzyme inhibition test, P450-Glo CYP1A2 Screening System; format: in vitro ADME
T3 construct: purchased Promega
T3 sequence (P05177 1-516): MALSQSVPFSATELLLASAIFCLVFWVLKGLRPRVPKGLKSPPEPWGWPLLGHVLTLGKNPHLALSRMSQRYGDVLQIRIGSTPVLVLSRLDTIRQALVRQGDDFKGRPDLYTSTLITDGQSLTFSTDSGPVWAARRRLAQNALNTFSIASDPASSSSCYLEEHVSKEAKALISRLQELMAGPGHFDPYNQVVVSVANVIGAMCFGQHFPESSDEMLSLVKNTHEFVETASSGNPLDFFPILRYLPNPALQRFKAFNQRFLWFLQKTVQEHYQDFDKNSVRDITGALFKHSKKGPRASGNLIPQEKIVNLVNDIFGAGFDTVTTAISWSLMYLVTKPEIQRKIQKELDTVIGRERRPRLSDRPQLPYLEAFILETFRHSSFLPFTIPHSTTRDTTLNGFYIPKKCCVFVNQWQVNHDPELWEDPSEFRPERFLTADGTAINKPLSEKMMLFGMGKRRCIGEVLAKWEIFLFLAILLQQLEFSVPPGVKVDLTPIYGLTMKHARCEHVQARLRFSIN
Experimental: Test Example 5: CYP enzyme (Cytocrome P450) inhibition test […] Test system: • P450-Glo™ CYP1A2 Screening System (Promega); • P450-Glo™ CYP2D6 Screening System (Promega); • P450-Glo™ CYP3A4 Screening System (Promega). • 2. Test instrument: BMG PHERAstar FS Luminescent. • 3. Test method: The test was carried out according to the kit instructions, and the steps were as follows: 3.1. Inhibition of CYP1A2: Test group: […] Negative control group: The experimental method was the same as that of the test group, but the test compound was not added. Blank control group: […] The median inhibitory concentration (IC50) or range of the compound was estimated according to the inhibition rate of CYP enzymes at different concentrations: […]

[2] = Luciferin-ME 100 µM, read-out: IC50 (µM) CYP1A2

Row | SMILES | IC50 [1] [nM] | IC50 (hERG) [µM] | IC50 (TGFβR1) [nM] | IC50 (CYP1A2) [µM] | IC50 (CYP1A2; Luciferin-ME 100 µM, 30 min, read-out: IC50 (µM) CYP1A2) [µM] | IC50 (CYP1A2; [2]) [µM]
1 | Cc1cccc(-n2nc3c(c2-c2ccn4nccc4c2)CCC3)n1 [Example 4, 5-[2-(6-methylpyridin-2-yl)-2,4,5,6-tetrahydrocyclopenteno [c]pyrazol-3-yl]pyrazolo[1,5-a]pyridine] | 35 ± 2.69 | > 10 | 12 ± 5.4 | > 10 |  | 
2 | Cc1cccc(-n2nc3c(c2-c2ccn4ncc(C(N)=O)c4c2)CCC3)n1 [Example 6, 5-[2-(6-methylpyridin-2-yl)-2,4,5,6-tetrahydrocyclopenteno[c]pyrazol-3-yl]pyrazolo[1,5-a]pyridine-3-carboxamide] | 20.1 ± 1 | > 10 | 2.36 ± 0.68 |  | > 10 | 
3 | CNc1cc(-c2ccn3ncc(C(N)=O)c3c2)n(-c2cccc(C)n2)n1 [Example 8, 5-(3-(methylamino)-1-(6-methylpyridin-2-yl)-1H-pyrazol-5-yl)pyrazolo[1,5-a]pyridine-3-carboxamide] | 29.9 ± 1.27 | > 10 | 8.27 ± 0.11 |  |  | > 10
4 | Cc1cccc(-n2nc(NC(C)c3ccc(F)cc3)cc2-c2ccn3ncc(C(N)=O)c3c2)n1 (stereo not drawn) [Example 10, 5-(3-(1-(4-fluorophenyl)ethylamino)-1-(6-methylpyridin-2-yl)-1H-pyrazol-5-yl)pyridino[1,5-a]pyridine-3-carboxamide] | 43.1 ± 4.19 | > 10 | 4.82 ± 0.51 | > 10 |  | 
5 | Cc1cccc(-n2nc(NCc3ccc(F)cc3)cc2-c2ccn3ncc(C(N)=O)c3c2)n1 [Example 11, 5-(3-(4-fluorobenzylamino)-1-(6-methylpyridin-2-yl)-1H-pyrazol-5-yl)pyrazolo[1,5-a]pyridine-3-carboxamide] | 19.4 ± 1.52 | > 10 | 0.5 ± 0.21 |  |  | > 10
6 | Cc1cccc(-n2nccc2-c2ccn3ncc(C(N)=O)c3c2)n1 [Example 12, 5-(1-(6-methylpyridin-2-yl)-1H-pyrazol-5-yl)pyrazolo[1,5-a]pyridine-3-carboxamide] | 26.6 ± 5.43 | > 10 | 9.39 ± 2.15 |  |  | > 10
